From ChEMBL document CHEMBL3885861, “Open TG-GATES”

Organism: Rattus norvegicus
Test: Open TG-GATES - Regimen: Daily Repeat
Assay type: toxicity, organism-based, Sprague-Dawley
Design: regimen Daily Repeat, gender Male, age 6 weeks
Settings: in vivo, po, route gavage; for APTT / Bas / Eos / Fbg / Hb / Ht / Lym / MCH / MCHC / MCV / Mono / Neu / PT / Plat / RBC / Ret / WBC: tissue Blood; for KIDNEY_L / KIDNEY_R / KIDNEY_TOTAL: tissue Kidney; for LIVER: tissue Liver; for A/G / ALP / ALT / AST / BUN / CRE / Ca / Cl / DBIL / GLC / IP / K / LDH / Na / PL / RALB / TBIL / TC / TG / TP / gamma-GTP: tissue Plasma
[1] = 0 mg/kg, 72 h, dose level Control, time 3 day
[2] = 0 mg/kg, […], dose level Control, time 7 day
[3] = 0 mg/kg, […], dose level Control, time 14 day
[4] = 0 mg/kg, […], dose level Control, time 28 day
[5] = 100 mg/kg, 72 h, dose level Low, time 3 day
[6] = 100 mg/kg, […], dose level Low, time 7 day
[7] = 100 mg/kg, […], dose level Low, time 14 day
[8] = 100 mg/kg, […], dose level Low, time 28 day

CN(C)[C@@H]1C(O)=C(C(N)=O)C(=O)[C@@]2(O)C(O)=C3C(=O)c4c(O)cccc4[C@@](C)(O)[C@H]3C[C@@H]12 [TETRACYCLINE]
TERMINAL_BW [1]: 188 g
APTT [1]: 16 s
Bas [1]: 0%
Eos [1]: 0.8%
Fbg [1]: 221 mg/dL
Hb [1]: 13.6 g/dL
Ht [1]: 41.2%
Lym [1]: 82.4%
MCH [1]: 21.9 pg
MCHC [1]: 33.1%
MCV [1]: 66 fL
Mono [1]: 6.8%
Neu [1]: 10%
PT [1]: 12.3 s
Plat [1]: 96.9 x10_4/uL
RBC [1]: 625 x10_4/ul
Ret [1]: 8.2%
WBC [1]: 111.7 x10_2/uL
KIDNEY_L [1]: 0.9 g
KIDNEY_R [1]: 0.9 g
KIDNEY_TOTAL [1]: 1.7 g
LIVER [1]: 9 g
A/G [1]: 2.2
ALP [1]: 921.6 IU/L
ALT [1]: 43.6 IU/L
AST [1]: 69 IU/L
BUN [1]: 17.6 mg/dL
CRE [1]: 0.6 mg/dL
Ca [1]: 11.2 mg/dL
Cl [1]: 105.4 meq/L
DBIL [1]: 0.008 mg/dL
GLC [1]: 183 mg/dL
IP [1]: 8.2 mg/dL
K [1]: 4.7 meq/L
LDH [1]: 99.8 IU/L
Na [1]: 140.2 meq/L
PL [1]: 150.2 mg/dL
RALB [1]: 4 g/dL
TBIL [1]: 0.3 mg/dL
TC [1]: 83.2 mg/dL
TG [1]: 80.2 mg/dL
TP [1]: 5.8 g/dL
gamma-GTP [1]: 1.4 IU/L
TERMINAL_BW [2]: 228 g
TERMINAL_BW [3]: 287.8 g
TERMINAL_BW [4]: 360.5 g
APTT [2]: 18.8 s
Bas [2]: 0%
Eos [2]: 1%
Fbg [2]: 226.7 mg/dL
Hb [2]: 13.6 g/dL
Ht [2]: 40.4%
Lym [2]: 80.8%
MCH [2]: 21.6 pg
MCHC [2]: 33.5%
MCV [2]: 64.3 fL
Mono [2]: 6.2%
Neu [2]: 12%
PT [2]: 12.1 s
Plat [2]: 112.5 x10_4/uL
RBC [2]: 629.6 x10_4/ul
Ret [2]: 6.6%
WBC [2]: 142 x10_2/uL
APTT [3]: 17 s
Bas [3]: 0%
Eos [3]: 0.6%
Fbg [3]: 238.4 mg/dL
Hb [3]: 13.9 g/dL
Ht [3]: 41.6%
Lym [3]: 80.4%
MCH [3]: 20.9 pg
MCHC [3]: 33.5%
MCV [3]: 62.3 fL
Mono [3]: 5.6%
Neu [3]: 13.6%
PT [3]: 11.7 s
Plat [3]: 109.2 x10_4/uL
RBC [3]: 668.4 x10_4/ul
Ret [3]: 5.7%
WBC [3]: 131 x10_2/uL
APTT [4]: 17.8 s
Bas [4]: 0%
Eos [4]: 1.4%
Fbg [4]: 235.8 mg/dL
Hb [4]: 14.8 g/dL
Ht [4]: 43.9%
Lym [4]: 83%
MCH [4]: 19.6 pg
MCHC [4]: 33.6%
MCV [4]: 58.3 fL
Mono [4]: 4.4%
Neu [4]: 11.6%
PT [4]: 11.8 s
Plat [4]: 100.7 x10_4/uL
RBC [4]: 753.4 x10_4/ul
Ret [4]: 2.9%
WBC [4]: 164.6 x10_2/uL
KIDNEY_L [2]: 1 g
KIDNEY_R [2]: 1 g
KIDNEY_TOTAL [2]: 2 g
KIDNEY_L [3]: 1.2 g
KIDNEY_R [3]: 1.2 g
KIDNEY_TOTAL [3]: 2.3 g
KIDNEY_L [4]: 1.3 g
KIDNEY_R [4]: 1.3 g
KIDNEY_TOTAL [4]: 2.7 g
LIVER [2]: 10.9 g
LIVER [3]: 13.5 g
LIVER [4]: 16 g
A/G [2]: 2.1
ALP [2]: 1017 IU/L
ALT [2]: 38.2 IU/L
AST [2]: 63.2 IU/L
BUN [2]: 19 mg/dL
CRE [2]: 0.6 mg/dL
Ca [2]: 11 mg/dL
Cl [2]: 106.4 meq/L
DBIL [2]: 0.006 mg/dL
GLC [2]: 184.4 mg/dL
IP [2]: 8.1 mg/dL
K [2]: 6.3 meq/L
LDH [2]: 107.6 IU/L
Na [2]: 139 meq/L
PL [2]: 157.8 mg/dL
RALB [2]: 3.9 g/dL
TBIL [2]: 0.3 mg/dL
TC [2]: 83.4 mg/dL
TG [2]: 90.8 mg/dL
TP [2]: 5.7 g/dL
gamma-GTP [2]: 1 IU/L
A/G [3]: 1.8
ALP [3]: 903 IU/L
ALT [3]: 30.6 IU/L
AST [3]: 67.4 IU/L
BUN [3]: 18.6 mg/dL
CRE [3]: 0.5 mg/dL
Ca [3]: 11.1 mg/dL
Cl [3]: 103.2 meq/L
DBIL [3]: 0.01 mg/dL
GLC [3]: 175.2 mg/dL
IP [3]: 7.9 mg/dL
K [3]: 4.7 meq/L
LDH [3]: 100.6 IU/L
Na [3]: 141 meq/L
PL [3]: 154.6 mg/dL
RALB [3]: 4 g/dL
TBIL [3]: 0.3 mg/dL
TC [3]: 72.2 mg/dL
TG [3]: 134.8 mg/dL
TP [3]: 6.2 g/dL
gamma-GTP [3]: 1.6 IU/L
A/G [4]: 1.7
ALP [4]: 807.8 IU/L
ALT [4]: 31.2 IU/L
AST [4]: 58.2 IU/L
BUN [4]: 20.8 mg/dL
CRE [4]: 0.6 mg/dL
Ca [4]: 10.9 mg/dL
Cl [4]: 106.2 meq/L
DBIL [4]: 0.016 mg/dL
GLC [4]: 175.2 mg/dL
IP [4]: 7.2 mg/dL
K [4]: 4.6 meq/L
LDH [4]: 91.4 IU/L
Na [4]: 140 meq/L
PL [4]: 164 mg/dL
RALB [4]: 3.8 g/dL
TBIL [4]: 0.3 mg/dL
TC [4]: 78.2 mg/dL
TG [4]: 154.8 mg/dL
TP [4]: 6.1 g/dL
gamma-GTP [4]: 1 IU/L
TERMINAL_BW [5]: 197.6 g
APTT [5]: 16.3 s
Bas [5]: 0%
Eos [5]: 0.8%
Fbg [5]: 225.6 mg/dL
Hb [5]: 13.2 g/dL
Ht [5]: 39.6%
Lym [5]: 85%
MCH [5]: 21.7 pg
MCHC [5]: 33.4%
MCV [5]: 65.1 fL
Mono [5]: 5.2%
Neu [5]: 9%
PT [5]: 12.1 s
Plat [5]: 103.9 x10_4/uL
RBC [5]: 608.6 x10_4/ul
Ret [5]: 7.9%
WBC [5]: 100.3 x10_2/uL
KIDNEY_L [5]: 0.9 g
KIDNEY_R [5]: 0.9 g
KIDNEY_TOTAL [5]: 1.8 g
LIVER [5]: 9.3 g
A/G [5]: 2.1
ALP [5]: 900.4 IU/L
ALT [5]: 40.6 IU/L
AST [5]: 73.4 IU/L
BUN [5]: 16.8 mg/dL
CRE [5]: 0.6 mg/dL
Ca [5]: 11.2 mg/dL
Cl [5]: 106.4 meq/L
DBIL [5]: 0 mg/dL
GLC [5]: 195.6 mg/dL
IP [5]: 9 mg/dL
K [5]: 4.8 meq/L
LDH [5]: 134.4 IU/L
Na [5]: 140 meq/L
PL [5]: 145.2 mg/dL
RALB [5]: 3.9 g/dL
TBIL [5]: 0.3 mg/dL
TC [5]: 86.2 mg/dL
TG [5]: 48.8 mg/dL
TP [5]: 5.7 g/dL
gamma-GTP [5]: 0.8 IU/L
TERMINAL_BW [6]: 227.4 g
TERMINAL_BW [7]: 271.9 g
TERMINAL_BW [8]: 346.9 g
APTT [6]: 16.7 s
Bas [6]: 0%
Eos [6]: 1%
Fbg [6]: 241 mg/dL
Hb [6]: 13.5 g/dL
Ht [6]: 40.2%
Lym [6]: 85.2%
MCH [6]: 21 pg
MCHC [6]: 33.6%
MCV [6]: 62.3 fL
Mono [6]: 6.2%
Neu [6]: 8%
PT [6]: 12 s
Plat [6]: 101.8 x10_4/uL
RBC [6]: 645.8 x10_4/ul
Ret [6]: 6.6%
WBC [6]: 114 x10_2/uL
APTT [7]: 16.5 s
Bas [7]: 0%
Eos [7]: 0.6%
Fbg [7]: 229.6 mg/dL
Hb [7]: 13.9 g/dL
Ht [7]: 41.7%
Lym [7]: 91.2%
MCH [7]: 20.9 pg
MCHC [7]: 33.5%
MCV [7]: 62.5 fL
Mono [7]: 2.4%
Neu [7]: 6.2%
PT [7]: 11.7 s
Plat [7]: 108.7 x10_4/uL
RBC [7]: 667.2 x10_4/ul
Ret [7]: 5.5%
WBC [7]: 180.6 x10_2/uL
APTT [8]: 17.5 s
Bas [8]: 0%
Eos [8]: 1%
Fbg [8]: 230.2 mg/dL
Hb [8]: 14.8 g/dL
Ht [8]: 44.5%
Lym [8]: 90%
MCH [8]: 19 pg
MCHC [8]: 33.4%
MCV [8]: 57.1 fL
Mono [8]: 3.8%
Neu [8]: 5.2%
PT [8]: 12.1 s
Plat [8]: 81 x10_4/uL
RBC [8]: 780 x10_4/ul
Ret [8]: 3.2%
WBC [8]: 163.8 x10_2/uL
KIDNEY_L [6]: 1 g
KIDNEY_R [6]: 1.1 g
KIDNEY_TOTAL [6]: 2.1 g
KIDNEY_L [7]: 1.1 g
KIDNEY_R [7]: 1.1 g
KIDNEY_TOTAL [7]: 2.2 g
KIDNEY_L [8]: 1.2 g
KIDNEY_R [8]: 1.2 g
KIDNEY_TOTAL [8]: 2.4 g
LIVER [6]: 11.4 g
LIVER [7]: 11.8 g
LIVER [8]: 13.6 g
A/G [6]: 2.1
ALP [6]: 738 IU/L
ALT [6]: 37.3 IU/L
AST [6]: 71 IU/L
BUN [6]: 19.7 mg/dL
CRE [6]: 0.6 mg/dL
Ca [6]: 11.4 mg/dL
Cl [6]: 105 meq/L
DBIL [6]: 0.0033 mg/dL
GLC [6]: 181.3 mg/dL
IP [6]: 9.9 mg/dL
K [6]: 5 meq/L
LDH [6]: 105.7 IU/L
Na [6]: 140 meq/L
PL [6]: 164.7 mg/dL
RALB [6]: 3.9 g/dL
TBIL [6]: 0.3 mg/dL
TC [6]: 86.3 mg/dL
TG [6]: 87.7 mg/dL
TP [6]: 5.9 g/dL
gamma-GTP [6]: 1.7 IU/L
A/G [7]: 2.3
ALP [7]: 983.4 IU/L
ALT [7]: 35.8 IU/L
AST [7]: 66.6 IU/L
BUN [7]: 17.2 mg/dL
CRE [7]: 0.6 mg/dL
Ca [7]: 10.9 mg/dL
Cl [7]: 104.4 meq/L
DBIL [7]: 0.002 mg/dL
GLC [7]: 177 mg/dL
IP [7]: 8.3 mg/dL
K [7]: 4.6 meq/L
LDH [7]: 79.2 IU/L
Na [7]: 141 meq/L
PL [7]: 149.6 mg/dL
RALB [7]: 4.1 g/dL
TBIL [7]: 0.4 mg/dL
TC [7]: 71 mg/dL
TG [7]: 107.4 mg/dL
TP [7]: 5.9 g/dL
gamma-GTP [7]: 2.6 IU/L
A/G [8]: 1.7
ALP [8]: 765.4 IU/L
ALT [8]: 30.2 IU/L
AST [8]: 61.8 IU/L
BUN [8]: 19.8 mg/dL
CRE [8]: 0.6 mg/dL
Ca [8]: 10.8 mg/dL
Cl [8]: 107.2 meq/L
DBIL [8]: 0.032 mg/dL
GLC [8]: 173.8 mg/dL
IP [8]: 7.5 mg/dL
K [8]: 4.2 meq/L
LDH [8]: 88.2 IU/L
Na [8]: 141.4 meq/L
PL [8]: 154 mg/dL
RALB [8]: 3.8 g/dL
TBIL [8]: 0.3 mg/dL
TC [8]: 73.8 mg/dL
TG [8]: 141.8 mg/dL
TP [8]: 6.2 g/dL
gamma-GTP [8]: 1.2 IU/L
